From patent US8916551B2, “Heterocyclic compound and use thereof” (Takeda Pharmaceutical Company Limited, priority 2010, dated 2014) come the findings set out here.

The structures appear in SMILES notation.

Series [1] addresses T1, AMPA receptor (human GluR1 flip/stargazin expressed in CHO-K1 cells) (Homo sapiens, UniProt P42261).
T1 construct: expressed in transfected cells; host or cells: CHO-K1
Nature of the series: AMPA receptor function enhancing activity using calcium influx as index. The format is cell-based. Particulars: 100% = 3 mM glutamic acid + 300 μM cyclothiazide, 0% = 3 mM glutamic acid only. Summed up:
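CHO-K1 clone stably co-expressing human GluR1 flip and stargazin, loaded with Calcium 4 dye plus probenecid. Compound at 30 μM was added with glutamate (3 mM final) and fluorescence change followed over 3 min. Activity is expressed as % of the 3 mM glutamate plus 300 μM cyclothiazide response, with glutamate alone as 0%.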

Setting [2] is: test compound 30 μM with glutamic acid final 3 mM, change in fluorescence in 3 min.
Setting [3] is: test compound 30 μM with 3 mM glutamic acid, change in fluorescence level in 3 min.

T1 sequence (P42261 19-906 isoform P42261-2 limits assumed): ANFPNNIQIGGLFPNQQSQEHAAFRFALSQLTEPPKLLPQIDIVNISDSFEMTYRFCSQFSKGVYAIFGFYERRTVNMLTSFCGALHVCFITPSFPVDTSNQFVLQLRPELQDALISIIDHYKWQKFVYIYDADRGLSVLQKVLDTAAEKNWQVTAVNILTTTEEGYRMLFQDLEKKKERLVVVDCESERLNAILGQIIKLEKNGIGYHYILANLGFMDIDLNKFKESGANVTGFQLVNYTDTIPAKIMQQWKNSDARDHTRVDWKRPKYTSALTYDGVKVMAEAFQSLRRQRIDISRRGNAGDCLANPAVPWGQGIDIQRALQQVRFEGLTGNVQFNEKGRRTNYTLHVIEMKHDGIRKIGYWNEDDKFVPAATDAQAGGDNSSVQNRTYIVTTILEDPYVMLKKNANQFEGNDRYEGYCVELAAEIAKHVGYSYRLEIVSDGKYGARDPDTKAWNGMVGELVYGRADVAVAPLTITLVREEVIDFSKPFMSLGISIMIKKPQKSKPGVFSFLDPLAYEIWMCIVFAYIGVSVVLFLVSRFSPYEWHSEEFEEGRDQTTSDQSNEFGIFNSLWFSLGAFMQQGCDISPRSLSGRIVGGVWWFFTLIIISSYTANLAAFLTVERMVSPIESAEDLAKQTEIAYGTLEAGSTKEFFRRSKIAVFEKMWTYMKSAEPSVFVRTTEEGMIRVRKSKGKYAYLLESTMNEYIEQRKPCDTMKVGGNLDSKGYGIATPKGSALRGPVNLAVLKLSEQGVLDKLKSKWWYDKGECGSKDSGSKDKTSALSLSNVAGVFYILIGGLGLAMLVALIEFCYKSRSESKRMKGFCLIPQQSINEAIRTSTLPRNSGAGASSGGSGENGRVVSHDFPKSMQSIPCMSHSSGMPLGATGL
T1 sequence (Q9Y698 whole entry partner): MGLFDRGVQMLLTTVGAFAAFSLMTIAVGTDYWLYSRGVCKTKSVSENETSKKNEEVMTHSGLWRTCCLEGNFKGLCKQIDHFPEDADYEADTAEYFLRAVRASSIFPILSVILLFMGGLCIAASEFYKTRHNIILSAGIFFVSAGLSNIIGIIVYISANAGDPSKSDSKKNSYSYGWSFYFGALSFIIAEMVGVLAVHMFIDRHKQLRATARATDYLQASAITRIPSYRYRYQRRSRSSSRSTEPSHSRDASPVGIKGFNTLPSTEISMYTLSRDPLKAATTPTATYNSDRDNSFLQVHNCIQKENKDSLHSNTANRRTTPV

As for `O=S1(=O)CCN2C=CC=C(c3ccc(OC(F)(F)F)cc3)C2=N1` [Example 34, 9-[4-(trifluoromethoxy)phenyl]-3,4-dihydropyrido[2,1-c][1,2,4]thiadiazine 2,2-dioxide], the melting point (in general, the temperature, or range, at which the solid turns liquid) lay within 249 to 251 °C. Besides, the “activity (%)” value in series [1] (setting [2]) is recorded as 78%.

Compound `COc1ccc2ccc(OC3=CC=CN4CCS(=O)(=O)N=C34)cc2c1` [Example 59, 9-[(7-methoxynaphthalen-2-yl)oxy]-3,4-dihydropyrido[2,1-c][1,2,4]thiadiazine 2,2-dioxide] returned a melting point of 235 to 237 °C. Besides, the “activity (%)” value in series [1] (setting [2]) was 72%.

With `CC(C)c1ccc(OCC2=CC=CN3CCS(=O)(=O)N=C23)cc1` [Example 61, 9-{[4-(1-methylethyl)phenoxy]methyl}-3,4-dihydropyrido[2,1-c][1,2,4]thiadiazine 2,2-dioxide], the melting point lay in the range of 212 to 214 °C. In addition, the “activity (%)” value in series [1] (setting [2]) was 75%.

In turn, `O=S1(=O)CCN2CCC[C@@H](c3ccc(Oc4ccccc4)cc3)C2=N1` [Example 63, (9S)-9-(4-phenoxyphenyl)-3,4,6,7,8,9-hexahydropyrido[2,1-c][1,2,4]thiadiazine 2,2-dioxide] returned a melting point of 174 to 175 °C. For the same compound, the “activity (%)” value in series [1] (setting [2]) turned out to be 77%.

Regarding `O=S1(=O)CCN2CCCC(c3ccc(-c4ccccc4)cc3)C2=N1` (stereo not shown) [Example 64, 9-biphenyl-4-yl-3,4,6,7,8,9-hexahydropyrido[2,1-c][1,2,4]thiadiazine 2,2-dioxide], the melting point lay within 220 to 222 °C. Besides, the “activity (%)” value in series [1] (setting [2]) was determined as 73%.

`O=S1(=O)CCN2CCCC(c3ccc(-c4ccccc4)cc3)C2=N1` (stereo not shown) [Example 65, 9-biphenyl-4-yl-3,4,6,7,8,9-hexahydropyrido[2,1-c][1,2,4]thiadiazine 2,2-dioxide] showed a melting point of 224 to 227 °C. In series [1] (setting [2]), the “activity (%)” value is 78%.

As for `CC(C)(C)COc1ccc(C2=CC=CN3CCS(=O)(=O)N=C23)cc1` [Example 67, 9-[4-(2,2-dimethylpropoxy)phenyl]-3,4-dihydropyrido[2,1-c][1,2,4]thiadiazine 2,2-dioxide], the melting point lay in the range of 258 to 259 °C. The “activity (%)” value in series [1] (setting [2]) amounted to 68%.

`O=S1(=O)CCN2C=CN=C(c3ccc(OC4CCCCC4)cc3)C2=N1` [Example 68, 9-[4-(cyclohexyloxy)phenyl]-3,4-dihydropyrazino[2,1-c][1,2,4]thiadiazine 2,2-dioxide] gave a melting point of 239 to 240 °C. Also, in series [1] (setting [2]), the “activity (%)” value is on record as 77%.

In turn, `O=S1(=O)CCN2C=CC=C(c3ccc(OCC4CCOCC4)cc3)C2=N1` [Example 69, 9-[4-(tetrahydro-2H-pyran-4-ylmethoxy)phenyl]-3,4-dihydropyrido[2,1-c][1,2,4]thiadiazine 2,2-dioxide] came in with a melting point of 268 to 269 °C. Further, in series [1] (setting [2]), the “activity (%)” value was 71%.

Compound `O=S1(=O)CCN2C=C(Cl)C=C(c3ccc(OC4CCCCC4)cc3)C2=N1` [Example 73, 7-chloro-9-[4-(cyclohexyloxy)phenyl]-3,4-dihydropyrido[2,1-c][1,2,4]thiadiazine 2,2-dioxide] gave a melting point of 284 to 287 °C. In series [1] (setting [2]), the “activity (%)” value is recorded as 75%.

Turning to `O=S1(=O)CCN2C=CC=C(c3ccc(OCC4CCCO4)cc3)C2=N1` (stereo not shown) [Example 75, 9-[4-(tetrahydrofuran-2-ylmethoxy)phenyl]-3,4-dihydropyrido[2,1-c][1,2,4]thiadiazine 2,2-dioxide], the melting point is 222 to 223 °C. Moreover, the “activity (%)” value in series [1] (setting [2]) is on record as 81%.

As to `O=S1(=O)CCN2C=C(Cl)C=C(c3ccc(Oc4ncccc4C(F)(F)F)cc3)C2=N1` [Example 78, 7-chloro-9-(4-{[3-(trifluoromethyl)pyridin-2-yl]oxy}phenyl)-3,4-dihydropyrido[2,1-c][1,2,4]thiadiazine 2,2-dioxide], the melting point is 264 to 265 °C. Moreover, the “activity (%)” value in series [1] (setting [2]) is reported as 72%.

Consider `O=S1(=O)CCN2C=C(Cl)C=C(c3ccc(Oc4ccnc(C(F)(F)F)c4)cc3)C2=N1` [Example 79, 7-chloro-9-(4-{[2-(trifluoromethyl)pyridin-4-yl]oxy}phenyl)-3,4-dihydropyrido[2,1-c][1,2,4]thiadiazine 2,2-dioxide], for which the melting point lay in the range of 239 to 240 °C. Besides, in series [1] (setting [2]), the “activity (%)” value stood at 90%.

Take `O=S1(=O)CCN2C=C(Cl)C=C(c3ccc(Oc4ccccc4)cc3)C2=N1` [Example 81, 7-chloro-9-(4-phenoxyphenyl)-3,4-dihydropyrido[2,1-c][1,2,4]thiadiazine 2,2-dioxide]: the melting point is 248 to 249 °C. In addition, the “activity (%)” value in series [1] (setting [2]) is 86%.

For the compound `Cc1ccc(Oc2ccc(C3=CC=CN4CCS(=O)(=O)N=C34)cc2)cc1` [Example 107, 9-[4-(4-methylphenoxy)phenyl]-3,4-dihydropyrido[2,1-c][1,2,4]thiadiazine 2,2-dioxide], the melting point was in the range of 248 to 249 °C. Besides, the “activity (%)” value in series [1] (setting [2]) was determined as 69%.

In the case of `O=S1(=O)CCN2CCCC(c3ccc(Oc4ccc(C(F)(F)F)cc4)cc3)C2=N1` (stereo not shown) [Example 125, 9-{4-[4-(trifluoromethyl)phenoxy]phenyl}-3,4,6,7,8,9-hexahydropyrido[2,1-c][1,2,4]thiadiazine 2,2-dioxide], the melting point was in the range of 191 to 193 °C. In addition, in series [1] (setting [2]), the “activity (%)” value is listed as 53%.

`Cc1ccc(C(F)(F)c2ccc(C3CCCN4CCS(=O)(=O)N=C34)cc2)cc1` (stereo not shown) [Example 137, 9-{4-[difluoro(4-methylphenyl)methyl]phenyl}-3,4,6,7,8,9-hexahydropyrido[2,1-c][1,2,4]thiadiazine 2,2-dioxide]: the melting point lay in the range of 190 to 191 °C. Besides, in series [1] (setting [2]), the “activity (%)” value is given as 61%.

The compound `Cc1cc(F)ccc1Oc1ccc(C2=CC=CN3CCS(=O)(=O)N=C23)cc1` [Example 143, 9-[4-(4-fluoro-2-methylphenoxy)phenyl]-3,4-dihydropyrido[2,1-c][1,2,4]thiadiazine 2,2-dioxide] yielded a melting point of 240 to 242 °C. In addition, in series [1] (setting [3]), the “activity (%)” value is recorded as 76%.

With `O=S1(=O)CCN2C=CC=C(c3ccc(Oc4ccc(Cl)cc4)cc3)C2=N1` [Example 147, 9-[4-(4-chlorophenoxy)phenyl]-3,4-dihydropyrido[2,1-c][1,2,4]thiadiazine 2,2-dioxide], the melting point was in the range of 232 to 234 °C. In series [1] (setting [3]), the “activity (%)” value stood at 70%.

Take `O=S1(=O)CCN2CCCC(c3ccc(Oc4ccc(Cl)cc4)cc3)C2=N1` (stereo not shown) [Example 148, 9-[4-(4-chlorophenoxy)phenyl]-3,4,6,7,8,9-hexahydropyrido[2,1-c][1,2,4]thiadiazine 2,2-dioxide]: the melting point was in the range of 215 to 216 °C. Moreover, the “activity (%)” value in series [1] (setting [3]) amounted to 73%.

As to `O=S1(=O)CCN2CCCC(c3ccc(Oc4ccc(Cl)c(Cl)c4)cc3)C2=N1` (stereo not shown) [Example 151, 9-[4-(3,4-dichlorophenoxy)phenyl]-3,4,6,7,8,9-hexahydropyrido[2,1-c][1,2,4]thiadiazine 2,2-dioxide], the melting point lay within 195 to 197 °C. In addition, the “activity (%)” value in series [1] (setting [3]) was found to be 67%.

As for `CC(F)(F)c1cccc(Oc2ccc(C3CCCN4CCS(=O)(=O)N=C34)cc2)c1` (stereo not shown) [Example 157, 9-{4-[3-(1,1-difluoroethyl)phenoxy]phenyl}-3,4,6,7,8,9-hexahydropyrido[2,1-c][1,2,4]thiadiazine 2,2-dioxide], the melting point was in the range of 117 to 118 °C. Moreover, in series [1] (setting [3]), the “activity (%)” value came out at 89%.

`O=S1(=O)CCN2CCCC(c3ccc(C(F)(F)F)cc3)C2=N1` (stereo not shown) [Example 175, 9-[4-(trifluoromethyl)phenyl]-3,4,6,7,8,9-hexahydropyrido[2,1-c][1,2,4]thiadiazine 2,2-dioxide]: the melting point was 226 to 227 °C. The “activity (%)” value in series [1] (setting [3]) is reported as 53%.

Compound `O=S1(=O)CCN2C=CC=C(c3ccc(OC4CCCCC4)cc3)C2=N1` [Example 182, 9-[4-(cyclohexyloxy)phenyl]-3,4-dihydropyrido[2,1-c][1,2,4]thiadiazine 2,2-dioxide] yielded a melting point of 272 to 274 °C. The “activity (%)” value in series [1] (setting [3]) worked out at 80%.

`N#Cc1ccc(Oc2ccc(C3CCCN4CCS(=O)(=O)N=C34)cc2)cc1Cl` (stereo not shown) [Example 183, 2-chloro-4-[4-(2,2-dioxido-3,4,6,7,8,9-hexahydropyrido[2,1-c][1,2,4]thiadiazin-9-yl)phenoxy]benzonitrile] gave a melting point of 219 to 220 °C. In addition, in series [1] (setting [3]), the “activity (%)” value is given as 91%.

Consider `O=S1(=O)CCN2C=CC=C(c3ccc(Oc4ccccc4)nc3)C2=N1` [Example 191, 9-(6-phenoxypyridin-3-yl)-3,4-dihydropyrido[2,1-c][1,2,4]thiadiazine 2,2-dioxide], for which the melting point was 244 to 245 °C. Also, in series [1] (setting [3]), the “activity (%)” value was 74%.

For `O=S1(=O)CCN2C=CC=C(c3ccc(Oc4ccc(O)cc4)cc3)C2=N1` [Example 198, 4-[4-(2,2-dioxido-3,4-dihydropyrido[2,1-c][1,2,4]thiadiazin-9-yl)phenoxy]phenol], the melting point is 289 to 290 °C. In series [1] (setting [3]), the “activity (%)” value stood at 87%.

Regarding `O=S1(=O)CCN2C=CC=C(c3ccc(Oc4ccc(F)cc4)cc3)C2=N1` [Example 199, 9-[4-(4-fluorophenoxy)phenyl]-3,4-dihydropyrido[2,1-c][1,2,4]thiadiazine 2,2-dioxide], the melting point fell in the range of 266 to 267 °C. The “activity (%)” value in series [1] (setting [3]) is reported as 79%.

The compound `O=S1(=O)CCN2CCCC(c3ccc(Oc4cccc(Cl)c4)cc3)C2=N1` (stereo not shown) [Example 201, 9-[4-(3-chlorophenoxy)phenyl]-3,4,6,7,8,9-hexahydropyrido[2,1-c][1,2,4]thiadiazine 2,2-dioxide] returned a melting point of 165 to 167 °C. For the same compound, the “activity (%)” value in series [1] (setting [3]) is reported as 74%.
